According to patent publication US7998952B2, “Thiolactams and uses thereof” (Millennium Pharmaceuticals, Inc., priority 2008, dated 2011):

Target: T1, recombinant human PLK1[2-369]T210D (Homo sapiens, UniProt P53350, T210D)
T1 construct: recombinant human PLK1[2-369]T210D; Smt (SUMO) fusion partner (N, cleaved yes); host or cells: E. coli
Test: PLK1 DELFIA Kinase Assay
Assay type: biochemical
Conditions: 50 μM ATP, 2 μM peptide substrate, 0.3 nM enzyme, 90 minutes at room temperature
Protocol: Recombinant human PLK1 was expressed in E. coli as an N-terminal Smt fusion protein using a proprietary vector (pSGX4) by Structural Genomics (SGX). The fusion partner was removed through cleavage with Ulp1 after an initial purification using a Ni2+ affinity column.
PLK1 DELFIA® Kinase Assay
The enzymatic reaction mixture, with or without PLK inhibitors, was incubated 90 minutes at room temperature before termination with 50 μL of STOP buffer containing 1% BSA, 0.05% Tween20, 100 mM EDTA. 50 μL of the stopped enzyme reaction mixture was transferred to a Neutravidin-coated 384-well plate (Pierce) and incubated at room temperature for 60 minutes. […] The wells were washed and then the bound europium was liberated using 50 μL of Enhancement Solution (Perkin Elmer). Quantification of europium was done using a Pherastar (BMG Labtech)

T1 sequence (P53350 2-369 T210D): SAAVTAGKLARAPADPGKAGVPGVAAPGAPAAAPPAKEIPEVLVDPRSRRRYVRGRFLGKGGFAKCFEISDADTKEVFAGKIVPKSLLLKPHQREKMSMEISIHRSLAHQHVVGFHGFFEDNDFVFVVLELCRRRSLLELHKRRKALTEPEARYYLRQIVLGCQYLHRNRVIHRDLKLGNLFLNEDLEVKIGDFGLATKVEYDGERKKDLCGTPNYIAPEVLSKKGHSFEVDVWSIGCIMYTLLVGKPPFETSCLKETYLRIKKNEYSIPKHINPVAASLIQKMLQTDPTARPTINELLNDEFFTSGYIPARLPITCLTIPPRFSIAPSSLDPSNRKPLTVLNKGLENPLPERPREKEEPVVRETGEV

| Structure (SMILES) | IC50 [nM] |
| --- | --- |
| CN(C)CCCc1cnc(F)c(Nc2ncc3c(n2)-c2ccc(Cl)cc2NC(=S)C3)c1 [Compound I-27, 9-chloro-2-({5-[3-(dimethylamino)propyl]-2-fluoropyridin-3-yl}amino)-5,7-dihydro-6H-pyrimido[5,4-d][1]benzazepine-6-thione] | < 5 |
| Cc1nc(N2CCC(N(C)C)CC2)ccc1Nc1ncc2c(n1)-c1ccc(C(F)(F)F)cc1NC(=S)C2 [Compound I-29, 2-({6-[4-(dimethylamino)piperidin-1-yl]-2-methylpyridin-3-yl}amino)-9-(trifluoromethyl)-5,7-dihydro-6H-pyrimido[5,4-d][1]benzazepine-6-thione] | < 5 |
| Cc1ncc(CCNC2CCCC2)cc1Nc1ncc2c(n1)-c1ccc(Cl)cc1NC(=S)C2 [Compound I-30, 9-chloro-2-({5-[2-(cyclopentylamino)ethyl]-2-methylpyridin-3-yl}amino)-5,7-dihydro-6H-pyrimido[5,4-d][1]benzazepine-6-thione] | > 25 |
| Cc1ncc(CCN2C[C@@H](C)O[C@@H](C)C2)cc1Nc1ncc2c(n1)-c1ccc(Cl)cc1NC(=S)C2 [Compound I-31, 9-chloro-2-[(5-{2-[(2R,6S)-2,6-dimethylmorpholin-4-yl]ethyl}-2-methylpyridin-3-yl)amino]-5,7-dihydro-6H-pyrimido[5,4-d][1]benzazepine-6-thione] | < 5 |
| CN(C)CCCc1cncc(Nc2ncc3c(n2)-c2ccc(C(F)(F)F)cc2NC(=S)C3)c1 [Compound I-32, 2-({5-[3-(dimethylamino)propyl]pyridin-3-yl}amino)-9-(trifluoromethyl)-5,7-dihydro-6H-pyrimido[5,4-d][1]benzazepine-6-thione] | < 5 |
| CN(C)CCCc1cc2c(cc1Cl)NC(=S)Cc1cnc(Nc3cccnc3)nc1-2 [Compound I-33, 9-chloro-10-[3-(dimethylamino)propyl]-2-(pyridin-3-ylamino)-5,7-dihydro-6H-pyrimido[5,4-d][1]benzazepine-6-thione] | 5 to 25 |
| Cc1ncc(CCN2CCCC(N(C)C)C2)cc1Nc1ncc2c(n1)-c1ccc(Cl)cc1NC(=S)C2 (stereo not shown) [Compound I-34, 9-chloro-2-[(5-{2-[3-(dimethylamino)piperidin-1-yl]ethyl}-2-methylpyridin-3-yl)amino]-5,7-dihydro-6H-pyrimido[5,4-d][1]benzazepine-6-thione] | < 5 |
| Cc1ccnc(C)c1Nc1ncc2c(n1)-c1ccc(Cl)cc1NC(=S)C2 [Compound I-37, 9-chloro-2-[(2,4-dimethylpyridin-3-yl)amino]-5,7-dihydro-6H-pyrimido[5,4-d][1]benzazepine-6-thione] | > 25 |
| Cc1ncc(CCCN(C)C)cc1Nc1ncc2c(n1)-c1ccc(C3CC3)cc1NC(=S)C2 [Compound I-39, 9-cyclopropyl-2-({5-[3-(dimethylamino)propyl]-2-methylpyridin-3-yl}amino)-5,7-dihydro-6H-pyrimido[5,4-d][1]benzazepine-6-thione] | < 5 |
| Cc1nc(NCC2CCN(C)CC2)ccc1Nc1ncc2c(n1)-c1ccc(Cl)cc1NC(=S)C2 [Compound I-40, 9-chloro-2-[(2-methyl-6-{[(1-methylpiperidin-4-yl)methyl]amino}pyridin-3-yl)amino]-5,7-dihydro-6H-pyrimido[5,4-d][1]benzazepine-6-thione] | < 5 |
| Cc1ncc(CCN2CCOCC2)cc1Nc1ncc2c(n1)-c1ccc(C(F)(F)F)cc1NC(=S)C2 [Compound I-43, 2-{[2-methyl-5-(2-morpholin-4-ylethyl)pyridin-3-yl]amino}-9-(trifluoromethyl)-5,7-dihydro-6H-pyrimido[5,4-d][1]benzazepine-6-thione] | < 5 |
| Cc1nc(CC2CCN(C)CC2)ccc1Nc1ncc2c(n1)-c1ccc(Cl)cc1NC(=S)C2 [Compound I-44, 9-chloro-2-({2-methyl-6-[(1-methylpiperidin-4-yl)methyl]pyridin-3-yl}amino)-5,7-dihydro-6H-pyrimido[5,4-d][1]benzazepine-6-thione] | 5 to 25 |
| Cc1ncc(CCN(C)C)cc1Nc1ncc2c(n1)-c1ccc(C(F)(F)F)cc1NC(=S)C2 [Compound I-50, 2-({5-[2-(dimethylamino)ethyl]-2-methylpyridin-3-yl}amino)-9-(trifluoromethyl)-5,7-dihydro-6H-pyrimido[5,4-d][1]benzazepine-6-thione] | < 5 |
| Cc1ncc(CCN2CCC(N(C)C)CC2)cc1Nc1ncc2c(n1)-c1ccc(C(F)(F)F)cc1NC(=S)C2 [Compound I-52, 2-[(5-{2-[4-(dimethylamino)piperidin-1-yl]ethyl}-2-methylpyridin-3-yl)amino]-9-(trifluoromethyl)-5,7-dihydro-6H-pyrimido[5,4-d][1]benzazepine-6-thione] | < 5 |

Continued, values first:

| IC50 [nM] | Structure (SMILES) |
| --- | --- |
| < 5 | CN(C)CCc1cncc(Nc2ncc3c(n2)-c2ccc(C(F)(F)F)cc2NC(=S)C3)c1 [Compound I-25, 2-({5-[2-(dimethylamino)ethyl]pyridin-3-yl}amino)-9-(trifluoromethyl)-5,7-dihydro-6H-pyrimido[5,4-d][1]benzazepine-6-thione] |
| < 5 | Cc1ncc(CCN2CCN(C)CC2)cc1Nc1ncc2c(n1)-c1ccc(C(F)(F)F)cc1NC(=S)C2 [Compound I-26, 2-({2-methyl-5-[2-(4-methylpiperazin-1-yl)ethyl]pyridin-3-yl}amino)-9-(trifluoromethyl)-5,7-dihydro-6H-pyrimido[5,4-d][1]benzazepine-6-thione] |
| < 5 | CN1CCN(c2ccc(Nc3ncc4c(n3)-c3ccc(Cl)cc3NC(=S)C4)cn2)CC1 [Compound I-28, 9-chloro-2-{[6-(4-methylpiperazin-1-yl)pyridin-3-yl]amino}-5,7-dihydro-6H-pyrimido[5,4-d][1]benzazepine-6-thione] |
| 5 to 25 | Cc1nc(N(C)CCN(C)C)ccc1Nc1ncc2c(n1)-c1ccc(C(F)(F)F)cc1NC(=S)C2 [Compound I-35, 2-({6-[[2-(dimethylamino)ethyl](methyl)amino]-2-methylpyridin-3-yl}amino)-9-(trifluoromethyl)-5,7-dihydro-6H-pyrimido[5,4-d][1]benzazepine-6-thione] |
| 5 to 25 | CN(C)CCCc1cnc(C(F)(F)F)c(Nc2ncc3c(n2)-c2ccc(C(F)(F)F)cc2NC(=S)C3)c1 [Compound I-36, 2-{[5-[3-(dimethylamino)propyl]-2-(trifluoromethyl)pyridin-3-yl]amino}-9-(trifluoromethyl)-5,7-dihydro-6H-pyrimido[5,4-d][1]benzazepine-6-thione] |
| < 5 | CCc1ncc(CCCN(C)C)cc1Nc1ncc2c(n1)-c1ccc(Cl)cc1NC(=S)C2 [Compound I-38, 9-chloro-2-({5-[3-(dimethylamino)propyl]-2-ethylpyridin-3-yl}amino)-5,7-dihydro-6H-pyrimido[5,4-d][1]benzazepine-6-thione] |
| 5 to 25 | Cc1nc(N(C)CCCN(C)C)ccc1Nc1ncc2c(n1)-c1ccc(Cl)cc1NC(=S)C2 [Compound I-41, 9-chloro-2-({6-[[3-(dimethylamino)propyl](methyl)amino]-2-methylpyridin-3-yl}amino)-5,7-dihydro-6H-pyrimido[5,4-d][1]benzazepine-6-thione] |
| < 5 | Cc1nc(C)c(Nc2ncc3c(n2)-c2ccc(Cl)cc2NC(=S)C3)cc1CCCN(C)C [Compound I-42, 9-chloro-2-({5-[3-(dimethylamino)propyl]-2,6-dimethylpyridin-3-yl}amino)-5,7-dihydro-6H-pyrimido[5,4-d][1]benzazepine-6-thione] |
| < 5 | Cc1ncc(CCN2CCCC2)cc1Nc1ncc2c(n1)-c1ccc(Cl)cc1NC(=S)C2 [Compound I-45, 9-chloro-2-{[2-methyl-5-(2-pyrrolidin-1-ylethyl)pyridin-3-yl]amino}-5,7-dihydro-6H-pyrimido[5,4-d][1]benzazepine-6-thione] |
| < 5 | Cc1ncc(N2CCN(C)CC2)cc1Nc1ncc2c(n1)-c1ccc(C(F)(F)F)cc1NC(=S)C2 [Compound I-46, 2-{[2-methyl-5-(4-methylpiperazin-1-yl)pyridin-3-yl]amino}-9-(trifluoromethyl)-5,7-dihydro-6H-pyrimido[5,4-d][1]benzazepine-6-thione] |
| < 5 | S=C1Cc2cnc(Nc3ccc(N4CCCC4)nc3)nc2-c2ccc(Cl)cc2N1 [Compound I-47, 9-chloro-2-[(6-pyrrolidin-1-ylpyridin-3-yl)amino]-5,7-dihydro-6H-pyrimido[5,4-d][1]benzazepine-6-thione] |
| < 5 | CCN1[C@H](C)CN(c2cnc(C)c(Nc3ncc4c(n3)-c3ccc(Cl)cc3NC(=S)C4)c2)C[C@@H]1C [Compound I-49, 9-chloro-2-({5-[(3R,5S)-4-ethyl-3,5-dimethylpiperazin-1-yl]-2-methylpyridin-3-yl}amino)-5,7-dihydro-6H-pyrimido[5,4-d][1]benzazepine-6-thione] |
| < 5 | CN1CCN(CCc2cncc(Nc3ncc4c(n3)-c3ccc(Cl)cc3NC(=S)C4)c2)CC1 [Compound I-51, 9-chloro-2-({5-[2-(4-methylpiperazin-1-yl)ethyl]pyridin-3-yl}amino)-5,7-dihydro-6H-pyrimido[5,4-d][1]benzazepine-6-thione] |
| < 5 | Cc1ncc(CCN2CCCCC2)cc1Nc1ncc2c(n1)-c1ccc(Cl)cc1NC(=S)C2 [Compound I-54, 9-chloro-2-{[2-methyl-5-(2-piperidin-1-ylethyl)pyridin-3-yl]amino}-5,7-dihydro-6H-pyrimido[5,4-d][1]benzazepine-6-thione] |
